Test results: patent US7704756B2, “Fluorogenic dyes” (Novartis Vaccines and Diagnostics, Inc., priority 2003, dated 2010)

Key:
[1] = pH 7.5 buffer
Method: An experiment was conducted to test the ability of compound 12 to respond to reducing conditions. Two incubations were performed: in the first, a control incubation, a sample of compound 12 was added to pH 7.5 buffer. In a second incubation (+DTT), the same amount of compound 12 was added to pH 7.5 buffer and then DTT was added to a final concentration of 10 mM.

[2] = Reporter selectively fluorescent under reducing conditions (DTT versus control buffer); format: physicochemical; conditions: compound 9 at 50 mM
Method: An experiment was conducted to determine the effect of reducing conditions versus non-reducing conditions on a reporter compound according to the invention (compound 9). Two incubations were conducted with compound 9 at a concentration of 50 mM. A control incubation was conducted which compared the same molar concentration of compound 9 in 10 mM Na phosphate at pH 7.5. A reducing reaction composition was made comprising the same buffer, and 10 mM dithiothreitol (DTT). […] For this example, synthesis of compound was conducted as previously described.

Compound	colour of solution after addition of DTT (formation of free dichlorodithiofluorescein dye) ([1]; DTT 10 mM final, within one minute after addition)	colour of control incubation ([1]; no DTT)	mass spectrometry analysis of content of DTT containing reaction ([2]; 10 mM Na phosphate pH 7.5, 10 mM DTT)	fluorescence under reducing conditions ([2]; 10 mM Na phosphate pH 7.5, 10 mM dithiothreitol (DTT), after one minute at room temperature)	mass spectrometry analysis of content of control reaction ([2]; 10 mM Na phosphate pH 7.5, no DTT)
5(6)-Carboxy-2′,7′-dichloro-3′,6′-bis(2′″-trimethylammonium(ethanedithio))fluorescein [compound 12]	turned light blue	remained colorless	–	–	–
CC(=O)O.CC(C)(CCSSCC[N+](C)(C)C)C(=O)Oc1ccc2c(c1)Oc1cc(OC(=O)C(C)(C)CCSSCC[N+](C)(C)C)ccc1C21OC(=O)c2ccccc21 [compound 9, Bis(4-(2′-(trimethylamino)ethanedithio)-2,2-dimethylbutyryl)carboxyfluorescein]	–	–	only fluorescein	strong green fluorescence	only compound 9
